# Reference: ChEMBL document CHEMBL3885861, “Open TG-GATES”
# Organism: Rattus norvegicus
# Experiment: Open TG-GATES - Regimen: Single
# Type: toxicity, organism-based, Sprague-Dawley
# Set-up: regimen Single, gender Male, age 6 weeks
# Settings: in vivo, iv, 120 mg/kg, route intravenous injection, dose level High; for APTT / Bas / Eos / Fbg / Hb / Ht / Lym / MCH / MCHC / MCV / Mono / Neu / PT / Plat / RBC / Ret / WBC: tissue Blood; for KIDNEY_L / KIDNEY_R / KIDNEY_TOTAL: tissue Kidney; for LIVER: tissue Liver; for A/G / ALP / ALT / AST / BUN / CRE / Ca / Cl / DBIL / GLC / IP / K / LDH / Na / PL / RALB / TBIL / TC / TG / TP / gamma-GTP: tissue Plasma
smiles,measurement,setting,value
CN(C)c1ncnc2c1ncn2[C@@H]1O[C@H](CO)[C@@H](N)[C@H]1O [PUROMYCIN AMINONUCLEOSIDE],TERMINAL_BW,3 h,210.5 g
same,APTT,3 h,22.4 s
same,Bas,3 h,0%
same,Eos,3 h,0.8%
same,Fbg,3 h,278.6 mg/dL
same,Hb,3 h,12.8 g/dL
same,Ht,3 h,37.9%
same,Lym,3 h,44.4%
same,MCH,3 h,21.1 pg
same,MCHC,3 h,33.8%
same,MCV,3 h,62.5 fL
same,Mono,3 h,3%
same,Neu,3 h,51.2%
same,PT,3 h,16.3 s
same,Plat,3 h,116 x10_4/uL
same,RBC,3 h,607 x10_4/ul
same,Ret,3 h,6.7%
same,WBC,3 h,133.5 x10_2/uL
same,KIDNEY_L,3 h,1 g
same,KIDNEY_R,3 h,0.9 g
same,KIDNEY_TOTAL,3 h,1.9 g
same,LIVER,3 h,9 g
same,A/G,3 h,1.3
same,ALP,3 h,1280.6 IU/L
same,ALT,3 h,43.4 IU/L
same,AST,3 h,82.8 IU/L
same,BUN,3 h,13.8 mg/dL
same,CRE,3 h,0.2 mg/dL
same,Ca,3 h,11 mg/dL
same,Cl,3 h,104.8 meq/L
same,DBIL,3 h,0.002 mg/dL
same,GLC,3 h,163.2 mg/dL
same,IP,3 h,9.3 mg/dL
same,K,3 h,4.1 meq/L
same,LDH,3 h,162.8 IU/L
same,Na,3 h,141.4 meq/L
same,PL,3 h,140.4 mg/dL
same,RALB,3 h,3 g/dL
same,TBIL,3 h,0.032 mg/dL
same,TC,3 h,69 mg/dL
same,TG,3 h,88.2 mg/dL
same,TP,3 h,5.3 g/dL
same,gamma-GTP,3 h,1.4 IU/L
same,TERMINAL_BW,6 h,213.9 g
same,APTT,6 h,22.1 s
same,Bas,6 h,0%
same,Eos,6 h,0.6%
same,Fbg,6 h,304.8 mg/dL
same,Hb,6 h,12.6 g/dL
same,Ht,6 h,37.5%
same,Lym,6 h,43.2%
same,MCH,6 h,20.7 pg
same,MCHC,6 h,33.6%
same,MCV,6 h,61.6 fL
same,Mono,6 h,3.6%
same,Neu,6 h,51.2%
same,PT,6 h,15.8 s
same,Plat,6 h,121.6 x10_4/uL
same,RBC,6 h,608.8 x10_4/ul
same,Ret,6 h,6.9%
same,WBC,6 h,133.1 x10_2/uL
same,KIDNEY_L,6 h,0.9 g
same,KIDNEY_R,6 h,1 g
same,KIDNEY_TOTAL,6 h,1.9 g
same,LIVER,6 h,9.3 g
same,A/G,6 h,1.3
same,ALP,6 h,1220.8 IU/L
same,ALT,6 h,40.8 IU/L
same,AST,6 h,75 IU/L
same,BUN,6 h,11.6 mg/dL
same,CRE,6 h,0.1 mg/dL
same,Ca,6 h,11.3 mg/dL
same,Cl,6 h,103.6 meq/L
same,DBIL,6 h,0.004 mg/dL
same,GLC,6 h,165.2 mg/dL
same,IP,6 h,10.4 mg/dL
same,K,6 h,4.3 meq/L
same,LDH,6 h,135.8 IU/L
same,Na,6 h,140 meq/L
same,PL,6 h,151 mg/dL
same,RALB,6 h,3 g/dL
same,TBIL,6 h,0.042 mg/dL
same,TC,6 h,79.8 mg/dL
same,TG,6 h,60.4 mg/dL
same,TP,6 h,5.4 g/dL
same,gamma-GTP,6 h,1.6 IU/L
same,TERMINAL_BW,9 h,213.9 g
same,APTT,9 h,22.8 s
same,Bas,9 h,0%
same,Eos,9 h,1%
same,Fbg,9 h,298.6 mg/dL
same,Hb,9 h,12.8 g/dL
same,Ht,9 h,38.3%
same,Lym,9 h,56%
same,MCH,9 h,20.9 pg
same,MCHC,9 h,33.5%
same,MCV,9 h,62.5 fL
same,Mono,9 h,2.8%
same,Neu,9 h,39.6%
same,PT,9 h,15.4 s
same,Plat,9 h,116 x10_4/uL
same,RBC,9 h,614 x10_4/ul
same,Ret,9 h,6.9%
same,WBC,9 h,117.1 x10_2/uL
same,KIDNEY_L,9 h,1 g
same,KIDNEY_R,9 h,1 g
same,KIDNEY_TOTAL,9 h,2 g
same,LIVER,9 h,8.2 g
same,A/G,9 h,1.2
same,ALP,9 h,1175.4 IU/L
same,ALT,9 h,42 IU/L
same,AST,9 h,79.6 IU/L
same,BUN,9 h,11.8 mg/dL
same,CRE,9 h,0.1 mg/dL
same,Ca,9 h,10.8 mg/dL
same,Cl,9 h,103.4 meq/L
same,DBIL,9 h,0 mg/dL
same,GLC,9 h,176.4 mg/dL
same,IP,9 h,10.3 mg/dL
same,K,9 h,4.2 meq/L
same,LDH,9 h,129.2 IU/L
same,Na,9 h,139.6 meq/L
same,PL,9 h,136.6 mg/dL
same,RALB,9 h,3 g/dL
same,TBIL,9 h,0.03 mg/dL
same,TC,9 h,75.4 mg/dL
same,TG,9 h,56.6 mg/dL
same,TP,9 h,5.4 g/dL
same,gamma-GTP,9 h,1.6 IU/L
same,TERMINAL_BW,24 h,212.8 g
same,APTT,24 h,20.5 s
same,Bas,24 h,0%
same,Eos,24 h,0.6%
same,Fbg,24 h,343 mg/dL
same,Hb,24 h,12.9 g/dL
same,Ht,24 h,37.4%
same,Lym,24 h,85%
same,MCH,24 h,20.5 pg
same,MCHC,24 h,34.6%
same,MCV,24 h,59.4 fL
same,Mono,24 h,3.8%
same,Neu,24 h,9.6%
same,PT,24 h,15.7 s
same,Plat,24 h,121.3 x10_4/uL
same,RBC,24 h,629 x10_4/ul
same,Ret,24 h,4.1%
same,WBC,24 h,73.2 x10_2/uL
same,KIDNEY_L,24 h,0.9 g
same,KIDNEY_R,24 h,0.9 g
same,KIDNEY_TOTAL,24 h,1.8 g
same,LIVER,24 h,9.4 g
same,A/G,24 h,1.3
same,ALP,24 h,1135 IU/L
same,ALT,24 h,39.8 IU/L
same,AST,24 h,70 IU/L
same,BUN,24 h,27.2 mg/dL
same,CRE,24 h,0.2 mg/dL
same,Ca,24 h,11.4 mg/dL
same,Cl,24 h,103.4 meq/L
same,DBIL,24 h,0 mg/dL
same,GLC,24 h,171.8 mg/dL
same,IP,24 h,10.5 mg/dL
same,K,24 h,4.8 meq/L
same,LDH,24 h,142.8 IU/L
same,Na,24 h,141 meq/L
same,PL,24 h,142.4 mg/dL
same,RALB,24 h,3.2 g/dL
same,TBIL,24 h,0.028 mg/dL
same,TC,24 h,79.4 mg/dL
same,TG,24 h,59.2 mg/dL
same,TP,24 h,5.8 g/dL
same,gamma-GTP,24 h,1.4 IU/L
